From PubChem BioAssay (NCI)
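48-hour exposure; five concentrations; linearly interpolated endpoints. TGI: concentration producing complete growth inhibition.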

Legend:
Assay in all cases: NCI anticancer screen, dose series, 48 h
MCF7 breast = test system: MCF7 breast
HCT-116 colon = test system: HCT-116 colon
786-0 renal = test system: 786-0 renal
NCI/ADR-RES ovarian = test system: NCI/ADR-RES ovarian
OVCAR-3 ovarian = test system: OVCAR-3 ovarian
DU-145 prostate = test system: DU-145 prostate
T-47D breast = test system: T-47D breast
NCI-H23 lung = test system: NCI-H23 lung
RXF 393 renal = test system: RXF 393 renal
SNB-19 CNS = test system: SNB-19 CNS
SF-295 CNS = test system: SF-295 CNS
SK-MEL-28 melanoma = test system: SK-MEL-28 melanoma
MDA-N = test system: MDA-N
CAKI-1 renal = test system: CAKI-1 renal
HOP-62 NSCLC = test system: HOP-62 NSCLC
PC-3 prostate = test system: PC-3 prostate
MDA-MB-231 breast = test system: MDA-MB-231 breast
HT29 colon = test system: HT29 colon
OVCAR-8 ovarian = test system: OVCAR-8 ovarian
UACC-62 melanoma = test system: UACC-62 melanoma
UACC-257 melanoma = test system: UACC-257 melanoma
SW-620 colon = test system: SW-620 colon
NCI-H522 lung = test system: NCI-H522 lung
A549 NSCLC = test system: A549 NSCLC
SK-MEL-2 melanoma = test system: SK-MEL-2 melanoma
TK-10 renal = test system: TK-10 renal
HCT-15 colon = test system: HCT-15 colon
MDA-MB-435 = test system: MDA-MB-435
IGROV1 ovarian = test system: IGROV1 ovarian
U251 CNS = test system: U251 CNS
SK-MEL-5 melanoma = test system: SK-MEL-5 melanoma
SN12C renal = test system: SN12C renal
SF-539 CNS = test system: SF-539 CNS
SK-OV-3 ovarian = test system: SK-OV-3 ovarian
SR leukemia = test system: SR leukemia
COLO 205 colon = test system: COLO 205 colon
HOP-92 NSCLC = test system: HOP-92 NSCLC
CCRF-CEM leukemia = test system: CCRF-CEM leukemia
HS 578T breast = test system: HS 578T breast
OVCAR-5 ovarian = test system: OVCAR-5 ovarian
K-562 leukemia = test system: K-562 leukemia
MOLT-4 leukemia = test system: MOLT-4 leukemia
ACHN renal = test system: ACHN renal
UO-31 renal = test system: UO-31 renal
OVCAR-4 ovarian = test system: OVCAR-4 ovarian
SNB-75 CNS = test system: SNB-75 CNS
BT-549 breast = test system: BT-549 breast
M14 melanoma = test system: M14 melanoma
RPMI-8226 leukemia = test system: RPMI-8226 leukemia
SF-268 CNS = test system: SF-268 CNS
HL-60(TB) leukemia = test system: HL-60(TB) leukemia
LOX IMVI melanoma = test system: LOX IMVI melanoma
NCI-H226 lung = test system: NCI-H226 lung
KM12 colon = test system: KM12 colon
MALME-3M melanoma = test system: MALME-3M melanoma
HCC-2998 colon = test system: HCC-2998 colon
EKVX NSCLC = test system: EKVX NSCLC
NCI-H460 lung = test system: NCI-H460 lung
A498 renal = test system: A498 renal

CCOC(=O)C(NCc1cccc(C(F)(F)F)c1)(NC(=O)c1ccccc1)C(F)(F)F (stereo not given)
TGI (MCF7 breast): > 100 µM | TGI (HCT-116 colon): > 100 µM | TGI (786-0 renal): 79.5 µM | TGI (NCI/ADR-RES ovarian): 84.5 µM | TGI (OVCAR-3 ovarian): 82 µM | TGI (DU-145 prostate): > 100 µM | TGI (T-47D breast): 80 µM | TGI (NCI-H23 lung): 70.8 µM | TGI (RXF 393 renal): 72.1 µM | TGI (SNB-19 CNS): > 100 µM | TGI (SF-295 CNS): > 100 µM | TGI (SK-MEL-28 melanoma): 63.6 µM | TGI (MDA-N): > 100 µM | TGI (CAKI-1 renal): 41.2 µM | TGI (HOP-62 NSCLC): > 100 µM | TGI (PC-3 prostate): > 100 µM | TGI (MDA-MB-231 breast): 29.9 µM | TGI (HT29 colon): 48.5 µM | TGI (OVCAR-8 ovarian): > 100 µM | TGI (UACC-62 melanoma): 30.9 µM | TGI (UACC-257 melanoma): 68.7 µM | TGI (SW-620 colon): > 100 µM | TGI (NCI-H522 lung): 50.4 µM | TGI (A549 NSCLC): > 100 µM | TGI (SK-MEL-2 melanoma): > 100 µM | TGI (TK-10 renal): > 100 µM | TGI (HCT-15 colon): > 100 µM | TGI (MDA-MB-435): 79 µM | TGI (IGROV1 ovarian): 66.9 µM | TGI (U251 CNS): > 100 µM | TGI (SK-MEL-5 melanoma): > 100 µM | TGI (SN12C renal): > 100 µM | TGI (SF-539 CNS): > 100 µM | TGI (SK-OV-3 ovarian): > 100 µM | TGI (SR leukemia): > 100 µM | TGI (COLO 205 colon): 29.9 µM | TGI (HOP-92 NSCLC): 64.7 µM | TGI (CCRF-CEM leukemia): > 100 µM | TGI (HS 578T breast): > 100 µM | TGI (OVCAR-5 ovarian): > 100 µM | TGI (K-562 leukemia): > 100 µM | TGI (MOLT-4 leukemia): > 100 µM | TGI (ACHN renal): 79.5 µM | TGI (UO-31 renal): 79.4 µM | TGI (OVCAR-4 ovarian): > 100 µM | TGI (SNB-75 CNS): 93.3 µM | TGI (BT-549 breast): 56.1 µM | TGI (M14 melanoma): > 100 µM | TGI (RPMI-8226 leukemia): 94.6 µM | TGI (SF-268 CNS): > 100 µM | TGI (HL-60(TB) leukemia): > 100 µM | TGI (LOX IMVI melanoma): 48.3 µM | TGI (NCI-H226 lung): > 100 µM | TGI (KM12 colon): > 100 µM | TGI (MALME-3M melanoma): 69 µM | TGI (HCC-2998 colon): > 100 µM | TGI (EKVX NSCLC): 83.9 µM

CN(C)CCn1c(=O)c2ccc3c4c(nn3CCN(C)C)c3ccccc3n(c1=O)c24
TGI (MCF7 breast): 1.05 µM | TGI (HCT-116 colon): 2.22 µM | TGI (786-0 renal): 0.961 µM | TGI (NCI/ADR-RES ovarian): 2.58 µM | TGI (OVCAR-3 ovarian): 2.63 µM | TGI (DU-145 prostate): 3.54 µM | TGI (T-47D breast): 3.74 µM | TGI (NCI-H23 lung): 1.42 µM | TGI (RXF 393 renal): 1.26 µM | TGI (SNB-19 CNS): 3.75 µM | TGI (SF-295 CNS): 0.849 µM | TGI (SK-MEL-28 melanoma): 6.46 µM | TGI (NCI-H460 lung): 0.417 µM | TGI (MDA-N): 0.97 µM | TGI (CAKI-1 renal): 0.52 µM | TGI (HOP-62 NSCLC): 1.88 µM | TGI (PC-3 prostate): 3.21 µM | TGI (MDA-MB-231 breast): 1.96 µM | TGI (HT29 colon): 2.23 µM | TGI (OVCAR-8 ovarian): 0.288 µM | TGI (UACC-62 melanoma): 1.34 µM | TGI (UACC-257 melanoma): 3.24 µM | TGI (SW-620 colon): 32 µM | TGI (NCI-H522 lung): 0.329 µM | TGI (A549 NSCLC): 4.38 µM | TGI (SK-MEL-2 melanoma): 1.17 µM | TGI (TK-10 renal): 2.35 µM | TGI (HCT-15 colon): 1.39 µM | TGI (MDA-MB-435): 1.39 µM | TGI (IGROV1 ovarian): 1.92 µM | TGI (U251 CNS): 1.43 µM | TGI (SK-MEL-5 melanoma): 1.42 µM | TGI (SN12C renal): 1.59 µM | TGI (SF-539 CNS): 2.2 µM | TGI (SK-OV-3 ovarian): 3.43 µM | TGI (SR leukemia): 1.85 µM | TGI (COLO 205 colon): 0.985 µM | TGI (CCRF-CEM leukemia): 10.9 µM | TGI (HS 578T breast): 12.5 µM | TGI (OVCAR-5 ovarian): 2.89 µM | TGI (K-562 leukemia): 2.49 µM | TGI (MOLT-4 leukemia): 0.0581 µM | TGI (ACHN renal): 0.765 µM | TGI (UO-31 renal): 2.42 µM | TGI (OVCAR-4 ovarian): 1.71 µM | TGI (SNB-75 CNS): 0.145 µM | TGI (BT-549 breast): 5.5 µM | TGI (M14 melanoma): 1.18 µM | TGI (RPMI-8226 leukemia): 4.07 µM | TGI (SF-268 CNS): 5.12 µM | TGI (HL-60(TB) leukemia): 2.75 µM | TGI (LOX IMVI melanoma): 1.38 µM | TGI (NCI-H226 lung): 2.92 µM | TGI (KM12 colon): 9.91 µM | TGI (MALME-3M melanoma): 2.13 µM | TGI (HCC-2998 colon): 0.534 µM | TGI (EKVX NSCLC): 0.112 µM | TGI (A498 renal): 1.34 µM
